≈ marks a conversion by molar mass, not a printed value. Like-named read-outs stand apart in the source and are kept apart here. Positions of bridges follow the written chain, without caps; N, C: chain ends. Residues, ends and D or L forms follow the SMILES beside them. Chains are numbered I, II in the order given. *: point of attachment. Myristoyl = CCCCCCCCCCCCCC(=O)*
How the values were obtained:
[1] = tested on: Methicillin-resistant Staphylococcus aureus (MRSA); format: cell-based
Description: (§1) V2-dimer and all lipopeptides (FIG. 1A) used in this study were purchased from Mimotopes. All peptides were prepared by dissolving in sterile water to make 1000 μg/mL stock solutions. Minimum Inhibitory Concentration (MIC) determination was carried out in Mueller Hinton Broth (MHB) using the broth macro-dilution method as described by the Clinical and Laboratory Standards Institute (CLSI). Then, cation-adjusted MHB (CA-MHB) was used to prepare serial two fold dilutions of the compounds in test tubes. The concentration of the inoculums suspension was also adjusted to approximately 5×10^5 Colony Forming Units (CFU)/mL using MHB. Bacteria were incubated with the compounds for 24 hours at 35° C. prior to reading. In this study, Gram-positive strains used were Staphylococcus aureus DM4001 and Methicillin-resistant Staphylococcus aureus (MRSA) DM9808. Gram-negative strains used were Klebsiella pneumoniae DM4299, Pseudomonas aeruginosa ATCC23155 and Escherichia coli ATCC27922.
(§2) Methods used are as described in Example 1 above.

Pseudomonas aeruginosa = format: cell-based
Description: as §1, §2

Staphylococcus aureus = format: cell-based
Description: as §1, §2

[2] = tested on: Klebsiella pneumoniae DM4299; format: cell-based
Description: as §1

Klebsiella pneumoniae = format: cell-based
Description: The minimum inhibitory concentration (MIC) was determined using the broth microdilution method. Bacterial cells (shown in Table 6) are grown in Mueller Hinton Broth (MHB) overnight. 100 μL of adjusted inoculum in MHB is added to 100 μL of each dilution of peptide or antibiotics dissolved in the broth, so as to yield a final cell density of 10^5 to 10^6 cfu/mL in each well. The plates were incubated at 35° C. for 24 h and the absorbance at 600 nm (OD600) was monitored every 30 minutes. A positive control well contained the broth and organisms (no peptides/antibiotics), and a negative control tube contains only the broth. The MIC of peptides for each clinical isolate or reference organism was recorded as the lowest concentration of peptide/antibiotic that inhibited visible growth of the test organism. To study the effect of Mg2+ on MIC of branched peptides, the concentration of MgCl2 was varied in MHB and the MIC was determined as before.

P. aeruginosa [3] = test: Bacterial viability assay (ED50); format: cell-based, Pseudomonas aeruginosa; details: P. aeruginosa ATCC 9027 and ATCC 27853; FIG. 12
Description: Cell viability was conducted for two Gram-negative bacteria (Pa 9027 and Pa 27853). The cultures were grown overnight in TS agar and a few isolated colonies were inoculated to achieve a turbidity equivalent to 0.5 McFarland standard. The cell concentration was adjusted to […] with 10 mM phosphate buffer and separated into different tubes to get final concentration of 10^5 CFU/ml. The peptides were added to the individual tubes to obtain concentrations of ⅛ MIC, ¼ MIC, ½ MIC, 1 MIC, 2 MIC and 4 MIC. The tubes were incubated at 37° C. for 22 h. Serial dilution was performed and 100 uL of the suspension was aliquot into MHA plate. The plates were incubated for 24 h at 37° C. for colony counting. Positive control was performed at 0 h and 22 h.

P. aeruginosa [4] = test: Time-kill kinetics assay; format: cell-based, Pseudomonas aeruginosa; details: both Pseudomonas strains at 1× and 2×MIC; compared with B2088; FIG. 13
Description: The kinetics of bactericidal action was performed by the assay reported before. Briefly, few colonies of overnight grown P. aeruginosa strains were collected from tryptic soy agar plate and suspended US pharmacopeia phosphate buffer (pH 7.2). The suspension was adjusted to an initial inoculum of 10^6 CFU/mL and incubated with various concentrations of B2088 and B2088—99 at 35° C. 0.1 mL aliquots were withdrawn at various time intervals, diluted […] fold using the same buffer, plated on tryptic soy agar plates and incubated at 35° C. The colonies were counted after 24 h incubation and expressed as CFU/mL. Buffer without peptides served as a positive control and % bacterial viability is estimated using the following equation:
Bacterial viability=1−(CFU/mL)peptide/(CFU/mL)control*100

P. aeruginosa ATCC 9027 = test: Outer membrane (OM) permeability assay (NPN); format: cell-based, Pseudomonas aeruginosa; details: FIG. 14
Description: To probe the OM permeability of peptides, a membrane impermeable probe N-phenyl-1-naphthyl amine (NPN) was used in the present study. The overnight cultured P. aeruginosa ATCC 9027 cells were harvested by centrifugation at 3000 rpm, 4° C. The resulting pellet was washed twice and resuspended in 5 mM HEPES buffer (pH 7.2) to OD600 of 0.4. The cells were placed in a 10 mm stirred cuvette and NPN was added to a final concentration of 10 μM. Appropriate concentrations of B2088 was added and the increase in fluorescence intensity was monitored on a Quanta Master fluorescence spectrophotometer (Photon Technology International, New Jersey, USA). The excitation and emission wavelengths were set at 350 and 410 nm with slid widths at 2 and 5 nm, respectively. The % NPN uptake was calculated relative to increase in NPN fluorescence intensity after the addition of 50 μM polymyxin B.

[5] = tested on: Escherichia coli ATCC27922; format: cell-based
Description: as §1

[6] = tested on: red blood cells (RBCs) of New Zealand white rabbits; test: in vitro; format: cell-based, rabbit
Description: Fresh red blood cells (RBCs) of New Zealand white rabbits were used for this experiment. The RBCs obtained were centrifuged at 3000 rpm for 10 min. Supernatant was removed and washed twice with sterile PBS Buffer (20 mM, 100 mM NaCl, pH 7). The RBCs were further diluted to 8% stock solution in PBS. Peptides were dissolved in PBS with desired stock concentrations. When compounds were mixed with RBCs, desired concentration of 4% RBCs was obtained. For C14V2D and C16V2D, they were dissolved in Dimethylformamide ([…]; DMF) with desired stock concentrations. When compounds were mixed with RBCs, desired concentration of 4% RBCs and 0.5% DMF was obtained. DMF concentration of <1% was used as it had negligible hemolytic activity on RBCs. The mixtures were added to 1.5 mL centrifuge tubes and incubated at 37° C. for 1 h. After incubation, the blood was centrifuged at 3000 rpm for 3 min at 4° C. 100 μL of the supernatant was transferred into transparent 96-well plate. The absorbance was measured at 576 nm using a microplate reader (TECAN Infinite 200M Pro). 2% Triton X-100 was used as positive control. PBS was used as negative controls. The amount of hemoglobin released was calculated using the following equation: […]

in vitro [7] = format: cell-based; details: human
Description: The cytotoxicity of individual compounds screened was determined by the lactate dehydrogenase (LDH) assay. In brief, human corneal fibroblast cells were plated at a density of 10,000 cells per well in a 96-well opaque white plate (SPL Life Sciences Inc). Test compounds of various concentrations and controls were added to appropriate wells such that the final volume is 100 μl in each well. After 4 hours of exposure to the test compounds, the plates were removed from 37° C. incubator and equilibrated to 22° C. for 30 minutes. One hundred microliters of Cyto-TOX One reagent (Promega Inc. USA) was added to each well and the LDH assay was performed according to manufacturer's instructions. Fluorescence was assessed at an excitation wavelength of 560 nm and an emission wavelength of 590 nm using a micro-plate reader (Tecan Infinite 200 Pro, Switzerland). The cells exposed to 1% Triton X-100 were used as a positive control and treated as maximum releasing of LDH. The percent specific cytotoxicity of each compound was determined using the formula below (I=intensity):
% Cytotoxicity=[(Iexperiments)−(Inegative controls)]/[Ipositive controls)−(Inegative controls)]×100

in vitro [8] = format: cell-based; details: human; remark: listed apart in the source
Description: Cells were plated at a density of 10,000 cells per well in a 96-well opaque white plate (SPL Life Sciences Inc. Korea). Test compounds of various concentrations and controls were added to appropriate wells such that the final volume is 100 μl in each well. After 4 hours of exposure to the test compounds, the plates were removed from 37° C. incubator and equilibrated to 22° C. for 30 minutes. One hundred microliters of CellTiter-Glo reagent (Promega Inc. USA) was added to each well and the ATP assay was performed according to manufacturer's instructions. Luminescence was assessed using a micro-plate reader (Tecan Infinite 200 Pro, Switzerland). The cells exposed to 1% Triton X-100 were used as a positive control. The percent cell viable of each compound was determined using the formula below (L=Luminescence detected):
% Viability=[(Lnegative controls)−(Lexperiments)]/[(Lnegative controls)−(Lpositive controls)]×100

MIC [1] [µM] | MIC (Pseudomonas aeruginosa) [µM] | MIC (Staphylococcus aureus) [µM] | MIC [2] [µM] | MIC (Klebsiella pneumoniae; 24 h) [µM] | MIC [5] [µM] | MIC (Klebsiella pneumoniae) [µM] | HC10 ([6]; red cells of rabbit, 1 h) [µg/mL] | HC10 [6] | SMILES | ED50 compared with B2088 (P. aeruginosa [3]) | kill kinetics (P. aeruginosa [4]) | PC50 (concentration for 50% increase in NPN fluorescence intensity) compared with B2088 (P. aeruginosa ATCC 9027) | CC50 at 4 h (in vitro [7]) [mM] | CC50 at 4 h (in vitro [8]) [mM]
5.89 (≈ 12.5 µg/mL) | 2.94 (≈ 6.24 µg/mL) | 5.66 (≈ 12 µg/mL) | 2.94 (≈ 6.24 µg/mL) | 2.9 (≈ 6.16 µg/mL) |  |  |  |  | N=C(N)NCCC[C@H](NC(=O)CNC(=O)CNC(=O)[C@H](CCCCN)NC(=O)[C@H](CCCNC(=N)N)NC(=O)CNC(=O)[C@@H](N)CCCNC(=N)N)C(=O)N[C@@H](CCCNC(=N)N)C(=O)NCCCC[C@H](NC(=O)[C@H](CCCNC(=N)N)NC(=O)[C@H](CCCNC(=N)N)NC(=O)CNC(=O)CNC(=O)[C@H](CCCCN)NC(=O)[C@H](CCCNC(=N)N)NC(=O)CNC(=O)[C@@H](N)CCCNC(=N)N)C(=O)N[C@@H](CCCCN)C(=O)O [Peptide G2D, (RGRKGGRR)2KK] (I: H-RGRKGGRRKK-OH / II: H-RGRKGGRR; amide I:9-II:C; N-terminus and C-terminus assumed) | two times lower | faster kill kinetics | higher |  | 
2.73 (≈ 6.25 µg/mL) | 5.46 (≈ 12.5 µg/mL) | 5.46 (≈ 12.5 µg/mL) | 5.46 (≈ 12.5 µg/mL) |  | 2.73 (≈ 6.25 µg/mL) | 2.7 (≈ 6.19 µg/mL) | >2000 |  | CC(C)[C@H](NC(=O)[C@H](CCCCN)NC(=O)[C@H](CCCNC(=N)N)NC(=O)CNC(=O)[C@@H](N)CCCNC(=N)N)C(=O)N[C@H](C(=O)N[C@@H](CCCNC(=N)N)C(=O)N[C@@H](CCCNC(=N)N)C(=O)NCCCC[C@H](NC(=O)[C@H](CCCNC(=N)N)NC(=O)[C@H](CCCNC(=N)N)NC(=O)[C@@H](NC(=O)[C@@H](NC(=O)[C@H](CCCCN)NC(=O)[C@H](CCCNC(=N)N)NC(=O)CNC(=O)[C@@H](N)CCCNC(=N)N)C(C)C)C(C)C)C(=O)N[C@@H](CCCCN)C(=O)O)C(C)C [Peptide V2D, (RGRKVVRR)2KK] (I: H-RGRKVVRRKK-OH / II: H-RGRKVVRR; amide I:9-II:C) |  |  |  | > 1 | > 1
2.30 (≈ 6.24 µg/mL) | 2.30 (≈ 6.24 µg/mL) | 2.30 (≈ 6.24 µg/mL) | 9.22 (≈ 25 µg/mL) |  | 1.15 (≈ 3.12 µg/mL) |  |  | ^b251.82 ± 5.2 ug/mL | CCCCCCCCCCCCCC(=O)N[C@@H](CCCNC(=N)N)C(=O)NCC(=O)N[C@@H](CCCNC(=N)N)C(=O)N[C@@H](CCCCN)C(=O)N[C@H](C(=O)N[C@H](C(=O)N[C@@H](CCCNC(=N)N)C(=O)N[C@@H](CCCNC(=N)N)C(=O)NCCCC[C@H](NC(=O)[C@H](CCCNC(=N)N)NC(=O)[C@H](CCCNC(=N)N)NC(=O)[C@@H](NC(=O)[C@@H](NC(=O)[C@H](CCCCN)NC(=O)[C@H](CCCNC(=N)N)NC(=O)CNC(=O)[C@H](CCCNC(=N)N)NC(=O)CCCCCCCCCCCCC)C(C)C)C(C)C)C(=O)N[C@@H](CCCCN)C(=O)O)C(C)C)C(C)C [Peptide C14-V2D, (C13H23—CO—NH—RGRKVVRR)2KK] (I: Myristoyl-RGRKVVRRKK-OH / II: Myristoyl-RGRKVVRR; amide I:9-II:C; N-terminus and C-terminus assumed) |  |  |  |  | 
2.63 (≈ 6.25 µg/mL) | 5.26 (≈ 12.5 µg/mL) | 5.26 (≈ 12.5 µg/mL) | 5.26 (≈ 12.5 µg/mL) |  | 2.63 (≈ 6.25 µg/mL) |  | >2000 |  | CC(=O)N[C@@H](CCCNC(=N)N)C(=O)NCC(=O)N[C@@H](CCCNC(=N)N)C(=O)N[C@@H](CCCCN)C(=O)N[C@H](C(=O)N[C@H](C(=O)N[C@@H](CCCNC(=N)N)C(=O)N[C@@H](CCCNC(=N)N)C(=O)NCCCC[C@H](NC(=O)[C@H](CCCNC(=N)N)NC(=O)[C@H](CCCNC(=N)N)NC(=O)[C@@H](NC(=O)[C@@H](NC(=O)[C@H](CCCCN)NC(=O)[C@H](CCCNC(=N)N)NC(=O)CNC(=O)[C@H](CCCNC(=N)N)NC(C)=O)C(C)C)C(C)C)C(=O)N[C@@H](CCCCN)C(=O)O)C(C)C)C(C)C [Peptide C2-V2D, (CH3—CO—NH—RGRKVVRR)2KK] (I: Ac-RGRKVVRRKK-OH / II: Ac-RGRKVVRR; amide I:9-II:C) |  |  |  |  | 

From US20150231199A1, “PEPTIDES AND THEIR USES” (priority 2012, published 2015)
